Counter-ions that a name gives are not always drawn.
Experiments:
[1] = biological target: T1, p62 protein (Homo sapiens, UniProt Q13501); experiment: Oligomerization activity of p62 protein by immunoblotting (Experimental Example 1); type: cell-based; conditions: HEK293 cell lysate treated with test compounds at room temperature for 2 hours; immunoblot, FIG. 2
T1 construct: endogenous in cells; host or cells: HEK293 (lysate treated with compounds)
Source text: In order to evaluate the p62 protein oligomerization activity efficacy by the compounds (Examples 1-25), HEK293 cell line, which is human embryonic kidney-derived cell, was collected. As the representative compounds among the present compounds, the compounds of Examples 1, 2, 3, 5, 6, 7, 8, 9, 12, and 13 (Example 10 (YT-5-1), Example 11 (YT-5-2), Example 12 (YT 5-7), Example 13 (YT 5-8), Example 15 (YT-8-7), Example 16 (YT-8-8), Example 17 (YTK-107), Example 18 ([…]), Example 20 (ATB10041), Example 21 (ATB10042), Example 22 (ATB10043), Example 23 (ATB10044), Example 24 (ATB10045) and Example 25 (ATB10046)) were selected. In order to measure intracellular p62 protein activation and oligomerization according to the treatment with these selected representative compounds, the respective cells were dispensed into a 100 pi dish. The cells were collected after further culturing for 24 hours so that the cells were completely attached to the surface of the plate. 100 ul of lysis buffer (20 mM Tris, pH 7.4), 150 mM NaCl, 1% Triton X-100, 2 mM NaF, 2 mM EDTA, 2 mM beta-glycerophosphate, 5 mM sodium orthovanadate, 1 mM PMSF, leupeptin, aprotinin) were injected into each sample and the cells were lysed. Based on the measured total protein concentration, each sample was treated with test compounds at room temperature for 2 hours, and then a sample buffer was added and allowed to react at 95° C. for 10 minutes. 25 ul was taken from the samples after the reaction, and dispensed into each well of acrylamide gel, and then immunoblotting was performed.

[2] = test system: LC3; experiment: Autophagy activity in cultured cells by immunoblotting, treatment time (Experimental Example 3); type: cell-based, human; conditions: HeLa cells; 5 μM for 1, 3, 6, 12, 24, 48 hours or 10 μM for 24 hours; immunoblot, FIG. 4
Experimental: In order to investigate the autophagy activity efficacy by the compounds (Examples 1-25), immunoblotting was performed in the same manner as in Experimental Example 2 using LC3 as a marker. As for the difference, in order to evaluate the treatment time required for activation and the activity retention time, 5 μM of the representative compounds selected among the present compounds (Example 5 (YTK-1005), Example 6 (YTK-1205), Example 7 (YTK-1305), Example 2 (YTK-2205), Example 3 (YTK-3305), Example 14 (YTK-1108), Example 8 (YTK-105), Example 9 (YTK-205)) were treated for 1, 3, 6, 12, 24, 48 hours. On the other hand, 10 μM of the representative compounds selected among the present compounds (Example 10 (YT 5-1), Example 11 (YT 5-2), Example 16 (YT 8-8), Example 15 (YT 8-7), Example 17 (YTK-107), Example 18 (YTK-207), Example 20 (ATB10041), Example 21 (ATB10042), Example 22 (ATB10043), Example 23 (ATB10044), Example 24 (ATB10045), Example 25 (ATB10046)) were treated for 24 hours.

[3] = test system: LC3; experiment: Autophagy activity of control compounds by immunoblotting (Experimental Example 4); type: cell-based, human; conditions: different concentrations and different times; immunoblot, FIG. 5
Experimental: In order to investigate the autophagy activity efficacy of control compounds, immunoblotting was performed in the same manner as in Experimental Example 2 by using LC3 as a marker. As the control compounds, compounds having the following structure were used.

[4] = test system: LC3; experiment: Autophagy activity in cultured cells by immunoblotting, concentration series (Experimental Example 2); type: cell-based, human; conditions: HeLa cells; 1, 2, 5, 10 and 20 μM, 24 hours; immunoblot, FIG. 3
Experimental: In order to evaluate the autophagy activity efficacy by the compounds (Examples 1-25), HeLa cell line, which is a cell line derived from a cervical cancer patient, was cultured using a DMEM medium containing 10% FBS and 1% streptomycin/penicillin in an incubator with 5% carbon dioxide. As the representative compounds among the present compounds, the compounds of Examples 1, 2, 3, 5, 6, 7, 8, 9, 12 and 13 (Example 5 (YTK-1005), Example 1 (YTK-1105), Example 6 (YTK-1205), Example 7 (YTK-1305), Example 2 (YTK-2205), Example 3 (YTK-3305), Example 8 (YTK-105), Example 9 (YTK-205), Example 14 (YTK-1108), Example 12 (YT 5-7), Example 13 (YT 5-8)), Example 20 (ATB10041), Example 21 (ATB10042), Example 22 (ATB10043), Example 23 (ATB10044), Example 24 (ATB10045), and Example 25 (ATB10046)) were selected. In order to measure autophagy activity according to the treatment with these selected representative compounds, the respective cells were dispensed into 6 well plates. Additional cultures were performed for 24 hours so that the cells were completely attached to the surface of the plate. To find the concentration at which the respective compounds could increase the phenomenon of autophagy, the test compounds were diluted at 1, 2, 5, 10 and 20 μM and treated. After treatment with the respective compounds, the cells were cultured again in a cell incubator for 24 hours, and then the cells were collected. To extract proteins from the collected cells, 100 ul of lysis buffer (20 mM Tris (pH 7.4), 150 mM NaCl, 1% Triton X-100, 2 mM NaF, 2 mM EDTA, 2 mM beta-glycerophosphate, 5 mM sodium orthovanadate, 1 mM PMSF, leupeptin, aprotinin) was injected into each sample, and cells were lysed. Based on the measured total protein concentration, a sample buffer was added to each sample and allowed to react at 100° C. for 5 minutes. 5 ul was taken from the samples after the reaction, and dispensed into each well of acrylamide gel, and then immunoblotting was performed.

T1 sequence (Q13501 whole entry): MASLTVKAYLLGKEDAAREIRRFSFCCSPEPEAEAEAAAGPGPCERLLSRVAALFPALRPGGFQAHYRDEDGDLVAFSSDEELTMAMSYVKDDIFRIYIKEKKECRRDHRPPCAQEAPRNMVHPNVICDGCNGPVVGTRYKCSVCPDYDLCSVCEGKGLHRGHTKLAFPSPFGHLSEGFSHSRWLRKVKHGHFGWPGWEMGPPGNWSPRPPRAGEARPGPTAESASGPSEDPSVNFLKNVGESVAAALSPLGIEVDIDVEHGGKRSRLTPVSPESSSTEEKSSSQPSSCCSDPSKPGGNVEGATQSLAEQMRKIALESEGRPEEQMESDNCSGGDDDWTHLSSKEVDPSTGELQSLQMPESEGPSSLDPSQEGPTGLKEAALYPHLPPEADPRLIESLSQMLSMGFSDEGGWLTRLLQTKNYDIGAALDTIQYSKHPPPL

| Compound | autophagy activity (level of LC3) [2] | autophagy activity (level of LC3) of control compounds [3] | further results |
| --- | --- | --- | --- |
| O=C(NCCO)NCc1ccc(OCc2ccccc2)c(OCc2ccccc2)c1 [ATB10041, 1-(3,4-bis(benzyloxy)benzyl)-3-(2-hydroxyethyl)urea] | increasing the autophagy activity |  | p62 protein oligomerization activity (monomer, oligomers and high-molecular aggregates) [1]: increasing the p62 protein oligomerization activity |
| O=C(CO)NCc1ccc(OCc2ccccc2)c(OCc2ccccc2)c1 [ATB10042, N-(3,4-bis(benzyloxy)benzyl)-2-hydroxyacetamide] | increasing the autophagy activity |  | p62 protein oligomerization activity (monomer, oligomers and high-molecular aggregates) [1]: increasing the p62 protein oligomerization activity |
| N[C@H](CNCc1ccc(OCc2ccccc2)c(OCc2ccccc2)c1)C(=O)O [ATB10043, (R)-2-amino-3-((3,4-bis(benzyloxy)benzyl)amino)propanoic acid] | increasing the autophagy activity |  | p62 protein oligomerization activity (monomer, oligomers and high-molecular aggregates) [1]: increasing the p62 protein oligomerization activity |
| NC(=O)CNCc1ccc(OCc2ccccc2)c(OCc2ccccc2)c1 [ATB10044, 2-((3,4-bis(benzyloxy)benzyl)amino)acetamide] | increasing the autophagy activity |  | p62 protein oligomerization activity (monomer, oligomers and high-molecular aggregates) [1]: increasing the p62 protein oligomerization activity |
| COc1cc(CNCCO)cc(OCc2ccccc2)c1OCc1ccccc1 [ATB10045, 2-((3,4-bis(benzyloxy)-5-methoxybenzyl)amino)ethan-1-ol] | increasing the autophagy activity |  | p62 protein oligomerization activity (monomer, oligomers and high-molecular aggregates) [1]: increasing the p62 protein oligomerization activity |
| OCCNCc1cc(Cl)c(OCc2ccccc2)c(OCc2ccccc2)c1 [ATB10046, 2-((3,4-bis(benzyloxy)-5-chlorobenzyl)amino)ethan-1-ol] | increasing the autophagy activity |  | p62 protein oligomerization activity (monomer, oligomers and high-molecular aggregates) [1]: increasing the p62 protein oligomerization activity |
| O=Cc1ccc(OCc2ccccc2)c(OCc2ccccc2)c1 [Example 1101, 3,4-bis(benzyloxy)benzaldehyde] |  | do not increase autophagy activity |  |
| Oc1ccc(OCc2ccccc2)c(OCc2ccccc2)c1 [Example 1102, 3,4-bis(benzyloxy)phenol] |  | do not increase autophagy activity |  |
| c1ccc(COc2ccc(OC[C@H]3CO3)cc2OCc2ccccc2)cc1 [Example 1103, (R)-2-((3,4-bis(benzyloxy)phenoxy)methyl)oxirane] |  | do not increase autophagy activity |  |
| O=Cc1ccc(OCc2ccccc2)c(OCCc2ccccc2)c1 [Example 1201, 4-(benzyloxy)-3-phenethoxybenzaldehyde] |  | do not increase autophagy activity |  |
| Oc1ccc(OCc2ccccc2)c(OCCc2ccccc2)c1 [Example 1202, 4-(benzyloxy)-3-phenethoxyphenol] |  | do not increase autophagy activity |  |
| c1ccc(CCOc2cc(OC[C@H]3CO3)ccc2OCc2ccccc2)cc1 [Example 1203, (R)-2-((4-(benzyloxy)-3-phenethoxyphenoxy)methyl)oxirane] |  | do not increase autophagy activity |  |
| O=Cc1ccc(OCc2ccccc2)c(OCCCc2ccccc2)c1 [Example 1301, 4-(benzyloxy)-3-(3-phenylpropoxy)benzaldehyde] |  | do not increase autophagy activity |  |
| Oc1ccc(OCc2ccccc2)c(OCCCc2ccccc2)c1 [Example 1302, 4-(benzyloxy)-3-(3-phenylpropoxy)phenol] |  | do not increase autophagy activity |  |
| O=Cc1ccc(OCc2ccccc2)c(OCCCCc2ccccc2)c1 [Example 1401, 4-(benzyloxy)-3-(4-phenylbutoxy)benzaldehyde] |  | do not increase autophagy activity |  |
| Oc1ccc(OCc2ccccc2)c(OCCCCc2ccccc2)c1 [Example 1402, 4-(benzyloxy)-3-(4-phenylbutoxy)phenol] |  | do not increase autophagy activity |  |
| O=Cc1ccc(OCCc2ccccc2)c(OCCc2ccccc2)c1 [Example 2201, 3,4-diphenethoxybenzaldehyde] |  | do not increase autophagy activity |  |
| Oc1ccc(OCCc2ccccc2)c(OCCc2ccccc2)c1 [Example 2202, 3,4-diphenethoxyphenol] |  | do not increase autophagy activity |  |
| Oc1ccc(OCCCCc2ccccc2)c(OCCCCc2ccccc2)c1 [Example 4402, 3,4-bis(4-phenylbutoxy)phenol] |  | do not increase autophagy activity |  |
| OCCNCc1ccc(OCc2ccccc2)c(OCc2ccccc2)c1 [YTK-1105, 2-((3,4-bis(benzyloxy)benzyl)amino)ethan-1-ol] |  |  | autophagy activity (level of LC3) [4]: increasing the autophagy activity |
| OCCCCc1ccc(OCc2ccccc2)c(OCc2ccccc2)c1 [YTK-1105-1, 4-(3,4-bis(benzyloxy)phenyl)butan-1-ol] |  | do not increase autophagy activity |  |
| OCCNCCNCc1ccc(OCc2ccccc2)c(OCc2ccccc2)c1 [YTK-HCl-1108, 2-((2-((3,4-bis(benzyloxy)benzyl)amino)ethyl)amino)ethan-1-ol] | increasing the autophagy activity |  |  |
| OCCNCc1ccc(OCc2ccccc2)c(OCCc2ccccc2)c1 [YTK-HCl-1205, 2-((4-(benzyloxy)-3-phenethoxybenzyl)amino)ethan-1-ol] | increasing the autophagy activity |  |  |
| OCCNCc1ccc(OCc2ccccc2)c(OCCCc2ccccc2)c1 [YTK-HCl-1305, 2-((4-(benzyloxy)-3-(3-phenylpropoxy)benzyl)amino)ethan-1-ol] | increasing the autophagy activity |  |  |
| OCCNCc1ccc(OCCc2ccccc2)c(OCCc2ccccc2)c1 [YTK-HCl-2205, 2-((3,4-diphenethoxybenzyl)amino)ethan-1-ol] | increasing the autophagy activity |  |  |
| OCCNCc1ccc(OCCCc2ccccc2)c(OCCCc2ccccc2)c1 [YTK-HCl-3305, 2-((3,4-bis(3-phenylpropoxy)benzyl)amino)ethan-1-ol] | increasing the autophagy activity |  |  |
